Our source for the IC50 values is patent US20260274819A1, “ULK1 INHIBITOR, PREPARATION METHOD THEREFOR AND USE THEREOF” (DOVETREE MEDICINES UNUS, INC., priority 2023, published 2026).

In test [1] the test system is HEK293 GFP-LC3 stably transfected cells. The experiment in a line: Inhibition of autophagy level in HEK293 GFP-LC3 stably transfected cells (autophagic flux). Format: cell-based. Particulars: Homo sapiens, Torin1 100 nM, 24 h, GFP fluorescence. The method, then:
The inhibitory effect of the compound of the present disclosure on intracellular autophagy was evaluated by testing the impact of the compound of the present disclosure on the fluorescence intensity of HEK293 GFP-LC3 stably transfected cells.
HEK293 GFP-LC3 stably transfected cells (HEK293, ATCC, CRL-1573) were cultured in a complete medium, namely, a DMEM medium (Gibco, 11965-092) containing 10% fetal bovine serum (Corning, 35-081-CV), 1% double antibody (Gibco, 15140-122) and 1 μg/mL of Puromycin (Invitrogen-A1113803).
Cell plating: HEK293 GFP-LC3 stably transfected cells at 80% growth confluence were digested, diluted with a medium free of Puromycin, and added to a 96-well cell culture plate (Geriner, 655090) at 12,000 cells per well, with a volume of 90 μL.
Compound incubation: 5 μL of Torin1 and 5 μL of a serially diluted compound were added to each well so that the highest concentration of the compound in the reaction system was 10 μM. 3-fold serial dilution with 8 concentrations was performed, and the final concentration of Torin1 was 100 nM. The DMSO content in the system was 0.1%. The positive control wells (PC) contain DMSO at a final concentration of 0.1%, and the negative control wells (NC) contain 100 nM of Torin1 with 0.1% of DMSO. The reaction plate was placed in an incubator at 37° C. in 5% CO2, and was incubated for 24 h.
Cell staining and fixation: The cell plate was taken out, and 10 μL of Hochest33342 nuclear staining reagent (Thermo, H1399) was added to each well, followed by incubation at 37° C. in 5% CO2 for 30 min. After the incubation was completed, the cell supernatant was discarded, and 100 μL of pre-cooled 4% paraformaldehyde was added to each well to fix the cells for 15 min. Then, the fixative was discarded, and 100 μL of PBS was added to each well. Images were captured for analysis using a high-content cell imaging analyzer (PE, Operetta CLS), and GFP fluorescence signals were collected for data processing.
The average GFP fluorescence signal intensity in the reaction wells was collected for the calculation of the inhibition ratio:
The dose-effect curve was fitted using the log(inhibitor) vs. response -Variable slope of Graphpad Prism8, thereby affording the IC50 value of each compound for inhibiting autophagy level in HEK293 GFP-LC3 stably transfected cells.

Another test deals with T1, ULK1 (Homo sapiens, UniProt O75385).
T1 construct: purchased Promega V3521
T1 sequence (O75385 1-649 limits assumed): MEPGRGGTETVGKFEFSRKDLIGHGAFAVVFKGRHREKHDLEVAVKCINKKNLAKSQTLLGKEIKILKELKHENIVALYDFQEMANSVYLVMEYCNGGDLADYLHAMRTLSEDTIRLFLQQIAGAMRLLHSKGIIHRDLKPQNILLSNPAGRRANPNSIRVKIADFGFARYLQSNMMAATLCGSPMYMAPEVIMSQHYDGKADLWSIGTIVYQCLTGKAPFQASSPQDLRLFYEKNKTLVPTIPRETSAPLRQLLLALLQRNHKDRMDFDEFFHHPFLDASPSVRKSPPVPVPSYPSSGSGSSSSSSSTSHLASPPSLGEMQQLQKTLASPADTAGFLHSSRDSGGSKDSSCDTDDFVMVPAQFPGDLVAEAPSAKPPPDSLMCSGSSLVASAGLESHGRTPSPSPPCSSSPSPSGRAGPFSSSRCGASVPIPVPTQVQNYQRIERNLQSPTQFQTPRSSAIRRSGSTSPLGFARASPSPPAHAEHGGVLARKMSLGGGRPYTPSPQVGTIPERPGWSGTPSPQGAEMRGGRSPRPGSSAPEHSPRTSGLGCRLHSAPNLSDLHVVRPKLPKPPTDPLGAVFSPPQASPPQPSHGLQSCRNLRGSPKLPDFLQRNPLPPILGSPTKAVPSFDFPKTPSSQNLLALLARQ
Briefly: Inhibition of ULK1 protein activity (ADP-Glo method). The settings on record: ULK1 enzyme, ATP and MBP substrate, 60 min room temperature. Format: biochemical. The method, then:
In this experiment, the inhibitory effect of a compound on the phosphorylation function of ULK1 was detected by ADP-Glo method. The inhibitory effect of the compound of the present disclosure on the ULK1 target was evaluated based on IC50.
Compound formulation: Using an ECHO (Beckman, ECHO650), the compound was serially diluted 3-fold in DMSO in a 384-well plate (PE, 6007290). A total of 10 concentration points were set, with the maximum concentration of the compound being 10 μM, and 50 nL per well. Positive control wells and negative control wells were added with 50 nL DMSO, respectively.
Reaction process: A 32 nM of ULK1 (Promega, V3521) solution was formulated, and 2.5 μL/well was transferred to the compound test wells and the negative control wells (NC). 2.5 μL/well of 1× Assay buffer was added to the positive control wells (PC). A mixed solution of 100 μM of ATP and 1.86 μM of MBP was formulated, and 2.5 μL/well was transferred to the reaction plate. After centrifugation, the reaction was initiated and incubated at room temperature for 60 min. After the reaction was completed, 5 μL/well of ADP-Glo Reagent (Promega, V9102) was added to the reaction plate. After centrifugation, the reaction was incubated at room temperature for 40 minutes. Finally, 10 μL/well of Kinase Detection Buffer was added, followed by centrifugation and incubation at room temperature for 30 min. The chemiluminescence value was read using Envision (PE, Envision2105).
Assay buffer: a reaction buffer; and Kinase Detection buffer: a detection buffer, both were taken from the ADP-Glodetection kit, purchased from Promega, model V9102. 3. Data analysis
The inhibition ratio of a compound on ULK1 activity was calculated using the following formula:
Inhibition ratio=(sample signal value−negative control signal value)/(positive control signal value−negative control signal value)×100%. The dose-effect curve was fitted using the log(inhibitor) vs. response -Variable slope of the analysis software GraphPad Prism 8, thereby affording the IC50 value of each compound for enzyme activity.

For test [2], the system named is ATG13 phosphorylation level in MIA PaCa-2 cells. Briefly: Inhibition of ATG13 phosphorylation level in MIA PaCa-2 cells (pATG13 ELISA). Format: cell-based. Particulars: Homo sapiens, Torin1 100 nM, 24 h incubation, Phospho-Atg13 (ser355). As to the method:
The inhibitory effect of the compound of the present disclosure on ULK1 was evaluated by testing the inhibitory effect of the compound of the present disclosure on ATG13 phosphorylation level in MIA PaCa-2 cells.
MIA PaCa-2 cells (ATCC, CRM-CRL-1420) were cultured in a complete medium, namely, a DMEM medium (Gibco, 11965-092) containing 10% fetal bovine serum (Corning, 35-081-CV), 2.5% horse serum (Gibco, 16050-122) and 1% double antibody (Gibco, 15140-122). The experiments were performed according to the requirements of the kit (Cell Signaling Technology, 17208C).
Cell plating: MIA PaCa-2 at 80% growth confluence were digested, diluted with the complete medium, and added to a 96-well cell culture plate (Costar, 3596) at 20,000 cells per well, with a volume of 90 μL.
Compound incubation: 5 μL of Torin1 and 5 μL of a serially diluted compound were added to each well so that the highest concentration of the compound in the reaction system was 10 μM. 5-fold serial dilution with 8 concentrations was performed, and the final concentration of Torin1 was 100 nM. The DMSO content in the system was 0.1%. The reaction plate was placed in an incubator at 37° C. in 5% CO2, and was incubated for 24 h. 10 μL of Torin1 was added to the negative control wells (NC) to a final concentration of 100 nM, with a DMSO content of 0.1%.
Reaction detection: After the incubation was completed, the cell plate was washed with a pre-cooled DPBS (Corning, 21-031-CVC) to wash away the compound and medium. 50 μL of pre-cooled cell lysis solution was added to each well, incubated on ice for 10 min. The cell plate was centrifuged, and the supernatant was transferred to an ELISA reaction plate. Simultaneously, 50 μL of Phospho-Atg13 (ser355) rabbit detection antibody was added, followed by incubation at room temperature under shaking for 60 min. After the incubation was completed, the reaction plate was washed with a washing solution for 4 times. 100 μL of TMB substrate was added for color development reaction, followed by incubation under shaded conditions with shaking for 15 min. Finally, 100 μL of stop solution was added to each well. The reaction was terminated by shaking for 10 s, and the absorbance value at 450 nm and 560 nm were collected within 10 min using Envision (Perkin Elmer, EnVision 2105).
The inhibition ratio was calculated by subtracting the absorbance value at […] from the absorbance value at 450 nm for each well. The inhibition ratio formula is as follows: inhibition ratio=(sample signal value−negative control signal value)/(positive control signal value -negative control signal value)×100%.
The dose-effect curve was fitted using the log (inhibitor) vs. response -Variable slope of Graphpad Prism8, thereby affording the IC50 value of each compound for inhibiting ATG13 phosphorylation level.
(An ELISA detects its analyte on a solid surface through an enzyme-linked reagent.)

SMILES strings stand for the structures. pIC50: −log10 of the molar value. Where only a bound is given, the exact number is not on record here.

In general, pIC50 refers to −log10 of the IC50, conventionally taken in molar units. The low end stands for a large IC50, the high end for a small IC50. Turning to `CN1CCN(c2ccc(Nc3ncc(C(F)(F)F)c(OCCCN4CCCCC4=O)n3)c(C3CC3)c2)CC1` [Example 1], the pIC50 was 6.00 to 7.00 in test [1], more than 7.00 on ULK1 and 6.00 to 7.00 in test [2].

With `CN1CCN(c2ccc(Nc3ncc(C(F)(F)F)c(N4CCN(C)C(=O)C4)n3)c(C3CC3)c2)CC1` [Example 5], the negative logarithm of the IC50 (pIC50) in test [1] is less than 6.00; against ULK1, more than 7.00; in test [2], less than 6.00.

Turning to `CN1CCN(c2ccc(Nc3ncc(C(F)(F)F)c(N4CCC(n5cccn5)CC4)n3)c(C3CC3)c2)CC1` [Example 14], the negative-log IC50 (pIC50) in test [1] was less than 6.00; on ULK1 it was more than 7.00; in test [2] it was more than 7.00.

For the compound `CN1CCc2cc(Nc3ncc(C(F)(F)F)c(N4CCN(C)C(=O)C4)n3)ccc2C1` [Example 15], the negative logarithm of the IC50 (pIC50) is 6.00 to 7.00 in test [1], more than 7.00 against ULK1 and 6.00 to 7.00 in test [2].

For `CN1CCN(c2ccc(Nc3ncc(C(F)(F)F)c(N4CCC5(CCN(C)C5)CC4)n3)c(C3CC3)c2)CC1` [Example 19], the results for the negative-log IC50 (pIC50) (in test [1]; on ULK1; in test [2]) were 6.00 to 7.00, more than 7.00 and less than 6.00, respectively.

Take `CN1CCN(c2ccc(Nc3ncc(C(F)(F)F)c(NC4CCN(C(=O)C5CCC5)CC4)n3)c(C3CC3)c2)CC1` [Example 20]: the pIC50 is less than 6.00 in test [1], more than 7.00 against ULK1 and less than 6.00 in test [2].

On to `CN1CCN(c2ccc(Nc3ncc(C(F)(F)F)c(N4CC5(CN(C)C5)C4)n3)c(C3CC3)c2)CC1` [Example 24], for which the pIC50 in test [1] is 6.00 to 7.00; against ULK1, more than 7.00; in test [2] it was 6.00 to 7.00.

Regarding `CN1CCN(c2ccc(Nc3ncc(C(F)(F)F)c(N4CCC5(CCN(C)C5)C4)n3)c(C3CC3)c2)CC1` (stereo not drawn) [Example 26], the pIC50 in test [1] is less than 6.00; against ULK1, more than 7.00; in test [2], 6.00 to 7.00.

As to `CN1CCN(c2ccc(Nc3ncc(C(F)(F)F)c(OCCCn4cccn4)n3)c(C3CC3)c2)CC1` [Example 29], the pIC50 in test [1] was 6.00 to 7.00; on ULK1, more than 7.00; in test [2], 6.00 to 7.00.

As for `CN1CCN(c2ccc(Nc3ncc(C(F)(F)F)c(NCCCn4cccn4)n3)c(C3CC3)c2)CC1` [Example 30], the pIC50 in test [1] was less than 6.00; against ULK1, more than 7.00; in test [2], less than 6.00.

Turning to `CN1CCN(c2ccc(Nc3ncc(C(F)(F)F)c(N[C@H]4CC[C@@H](n5cccn5)CC4)n3)c(C3CC3)c2)CC1` [Example 32], the negative-log IC50 (pIC50) in test [1] was less than 6.00; against ULK1, more than 7.00; in test [2] it was 6.00 to 7.00.

On to `CN1Cc2cc(Nc3ncc(C(F)(F)F)c(OCCCN4CCCCC4=O)n3)ccc2C2(CC2)C1` [Example 49], for which the negative logarithm of the IC50 (pIC50) (in test [1]; on ULK1; in test [2]) was more than 7.00 throughout.

For the compound `CN1CCN(c2ccc(Nc3ncc(C(F)(F)F)c(N4CCC5(CCN(C)CC5)CC4)n3)c(C3CC3)c2)CC1` [Example 51], the pIC50 in test [1] was 6.00 to 7.00; on ULK1 it was more than 7.00; in test [2], less than 6.00.

Consider `CN1CCN(c2ccc(Nc3ncc(C(F)(F)F)c(N4CCC5(CCN(C)CC5)C4)n3)c(C3CC3)c2)CC1` [Example 53], for which the figures for the pIC50 (in test [1]; against ULK1; in test [2]) were less than 6.00, more than 7.00 and 6.00 to 7.00, respectively.
